The values that follow are results of earlier work, collected in patent US20180371365A1, “FABRIC SOFTENER COMPOSITIONS” (The Procter & Gamble Company, priority 2017, published 2018).

SMILES strings stand for the structures.

For the data set the following is noted: acidifying agents for compositions having pH 3.5 or greater.
The pKa is the pH at which an ionisable group is half protonated. Turning to `O=C(O)C=Cc1ccc(O)cc1` [p-coumaric acid, 4-hydroxy cinnamic acid], the pKa was 4.6.
On to `CCCCCCCCC(=O)O` [nonanoic acid], for which the pKa is 5.2.
In the case of `C=CCCCCCCCCC(=O)O` [undecylenic acid], the pKa is reported as 5.0.
In the case of `CCCCCCC(=O)O` [heptanoic acid], the pKa is listed as 5.1.
For `c1c[nH]cn1` [imidazole], the pKa was 7.0.
For `OCl` [hypochlorous acid], the pKa was 7.0.
